Assays:
barnyardgrass [1] = assay: Test C postemergence; assay type: in vivo, Echinochloa crus-galli; conditions: Echinochloa crus-galli, post-emergence
Summary of the method: (§1)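 Preemergence: seeds sown in a loam soil–sand blend and sprayed with test chemical in a non-phytotoxic solvent mixture containing surfactant. Postemergence: plants at 2 to 18 cm (1- to 4-leaf stage) in peat-based medium, treated with the same formulation. Greenhouse 13 to 15 days, then visual rating 0 (no effect) to 100 (complete control).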

wheat, winter [2] = assay: Test C preemergence; assay type: in vivo, Triticum aestivum; conditions: Triticum aestivum, pre-emergence
Summary of the method: as §1

yellow nutsedge = assay: Test C postemergence; assay type: in vivo, Cyperus esculentus; conditions: Cyperus, post-emergence
Summary of the method: as §1

waterhemp = assay: Test C postemergence; assay type: in vivo, Amaranthus rudis; conditions: Amaranthus tuberculatus, post-emergence
Summary of the method: as §1

galium = assay: Test C postemergence; assay type: in vivo, Galium aparine; conditions: Galium, post-emergence
Summary of the method: as §1

wild oat = assay: Test C postemergence; assay type: in vivo, Avena fatua; conditions: Avena fatua, post-emergence
Summary of the method: as §1

barnyardgrass [3] = assay: Test A postemergence; assay type: in vivo, Echinochloa crus-galli; conditions: 0 to 100 scale where 0 is no effect and 100 is complete control
Summary of the method: (§2)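 Injury scores run from 0, no effect, to 100, complete control, judged by eye against untreated plants roughly 10 days after treatment. Chemicals carried a surfactant in a non-phytotoxic solvent and went onto loam–sand soil preemergence or onto one- to two-leaf seedlings postemergence.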

corn = assay: Test A postemergence; assay type: in vivo, Zea mays; conditions: 0 to 100 scale where 0 is no effect and 100 is complete control
Summary of the method: as §2

ragweed [4] = assay: Test C postemergence; assay type: in vivo, Ambrosia elatior; conditions: Ambrosia artemisiifolia, post-emergence
Summary of the method: as §1

velvetleaf = assay: Test C preemergence; assay type: in vivo, Abutilon theophrasti; conditions: Abutilon theophrasti, pre-emergence
Summary of the method: as §1

Italian ryegrass = assay: Test C preemergence; assay type: in vivo, Lolium multiflorum; conditions: Lolium multiflorum, pre-emergence
Summary of the method: as §1

morningglory = assay: Test C preemergence; assay type: in vivo, Ipomoea coccinea; conditions: Ipomoea, pre-emergence
Summary of the method: as §1

ragweed [5] = assay: Test A postemergence; assay type: in vivo, Ambrosia elatior; conditions: 0 to 100 scale where 0 is no effect and 100 is complete control
Summary of the method: as §2

kochia [6] = assay: Test A preemergence; assay type: in vivo, Kochia scoparia; conditions: 0 to 100 scale where 0 is no effect and 100 is complete control
Summary of the method: as §2

soybean = assay: Test C preemergence; assay type: in vivo, Glycine max; conditions: Glycine max, pre-emergence
Summary of the method: as §1

wheat, winter [7] = assay: Test C postemergence; assay type: in vivo, Triticum aestivum; conditions: Triticum aestivum, post-emergence
Summary of the method: as §1

kochia [8] = assay: Test A postemergence; assay type: in vivo, Kochia scoparia; conditions: 0 to 100 scale where 0 is no effect and 100 is complete control
Summary of the method: as §2

N#Cc1cccc(Oc2ncc(Cl)cn2)c1-n1cc(SC(F)(F)F)cn1 [Compound 134, 3-[(5-chloro-2-pyrimidinyl)oxy]-2-[4-(trifluoromethylthio)-1-pyrazolyl]benzonitrile]
pest or weed control at 16 g/ha (barnyardgrass [1]; 16 g ai/ha, postemergence, 0 is no effect, 100 is complete control, read-out: Plant response rating (0 to 100), Barnyardgrass): 0% | pest or weed control at 125 g/ha (barnyardgrass [1]; 125 g ai/ha, postemergence, visual rating, scale 0 to 100 (0 no effect, 100 complete control), read-out: Plant response rating, Barnyardgrass): 10% | pest or weed control at 31 g/ha (barnyardgrass [1]; Postemergence, 31 g ai/ha, scale 0 to 100 (0 no effect, 100 complete control), 13 to 15 days, read-out: Plant response rating, Barnyardgrass): 5% | pest or weed control at 62 g/ha (barnyardgrass [1]; Postemergence, 62 g ai/ha, scale 0 to 100 (0 no effect, 100 complete control), read-out: Plant response rating, Barnyardgrass): 5% | plant injury at 16 g/ha (wheat, winter [2]; 16 g ai/ha, preemergence, scale 0 to 100 (0 no effect, 100 complete control), read-out: Wheat plant response rating): 0% | plant injury at 62 g/ha (wheat, winter [2]; 62 g ai/ha, preemergence, scale 0 (no effect) to 100 (complete control), read-out: Wheat plant response rating): 0% | plant injury at 125 g/ha (wheat, winter [2]; 125 g ai/ha, preemergence, scale 0 (no effect) to 100 (complete control), read-out: Wheat plant response rating): 15% | plant injury at 31 g/ha (wheat, winter [2]; Preemergence, 31 g ai/ha, scale 0 to 100, 0 no effect, 100 complete control, read-out: Plant response rating, Wheat): 0% | pest or weed control at 16 g/ha (yellow nutsedge; 16 g ai/ha, postemergence, 0 is no effect, 100 is complete control, read-out: Plant response rating (0 to 100), Nutsedge, Yellow): 0% | pest or weed control at 125 g/ha (yellow nutsedge; 125 g ai/ha, postemergence, visual rating, scale 0 to 100 (0 no effect, 100 complete control), read-out: Plant response rating, Nutsedge, Yellow): 10% | pest or weed control at 62 g/ha (yellow nutsedge; Postemergence, 62 g ai/ha, scale 0 to 100 (0 no effect, 100 complete control), read-out: Plant response rating, Nutsedge, Yellow): 10% | pest or weed control at 16 g/ha (waterhemp; 16 g ai/ha, postemergence, 0 is no effect, 100 is complete control, read-out: Plant response rating (0 to 100), Waterhemp): 55% | pest or weed control at 125 g/ha (waterhemp; 125 g ai/ha, postemergence, visual rating, scale 0 to 100 (0 no effect, 100 complete control), read-out: Plant response rating, Waterhemp): 85% | pest or weed control at 62 g/ha (waterhemp; Postemergence, 62 g ai/ha, scale 0 to 100 (0 no effect, 100 complete control), read-out: Plant response rating, Waterhemp): 60% | pest or weed control at 16 g/ha (galium; 16 g ai/ha, postemergence, 0 is no effect, 100 is complete control, read-out: Plant response rating (0 to 100), Galium): 65% | pest or weed control at 125 g/ha (galium; 125 g ai/ha, postemergence, visual rating, scale 0 to 100 (0 no effect, 100 complete control), read-out: Plant response rating, Galium): 85% | pest or weed control at 62 g/ha (galium; Postemergence, 62 g ai/ha, scale 0 to 100 (0 no effect, 100 complete control), read-out: Plant response rating, Galium): 85% | pest or weed control at 16 g/ha (wild oat; 16 g ai/ha, postemergence, 0 is no effect, 100 is complete control, read-out: Plant response rating (0 to 100), Oat, Wild): 5% | pest or weed control at 125 g/ha (wild oat; 125 g ai/ha, postemergence, visual rating, scale 0 to 100 (0 no effect, 100 complete control), read-out: Plant response rating, Oat, Wild): 10% | pest or weed control at 62 g/ha (wild oat; Postemergence, 62 g ai/ha, scale 0 to 100 (0 no effect, 100 complete control), read-out: Plant response rating, Oat, Wild): 10% | Barnyardgrass plant response rating (barnyardgrass [3]; 125 g ai/ha): 80 | Plant response rating, Barnyardgrass (barnyardgrass [3]; 500 g ai/ha): 90 | Plant response rating, Corn (corn; 500 g ai/ha): 60 | plant injury at 125 g/ha (corn; Zea mays, post-emergence, 240 h, 125 g ai/ha, read-out: Corn plant response rating): 40% | pest or weed control at 16 g/ha (ragweed [4]; 16 g ai/ha, postemergence, 0 is no effect, 100 is complete control, read-out: Plant response rating (0 to 100), Ragweed): 10% | pest or weed control at 125 g/ha (ragweed [4]; 125 g ai/ha, postemergence, visual rating, scale 0 to 100 (0 no effect, 100 complete control), read-out: Plant response rating, Ragweed): 55% | pest or weed control at 62 g/ha (ragweed [4]; Postemergence, 62 g ai/ha, scale 0 to 100 (0 no effect, 100 complete control), read-out: Plant response rating, Ragweed): 55% | pest or weed control at 16 g/ha (velvetleaf; 16 g ai/ha, preemergence, scale 0 to 100 (0 no effect, 100 complete control), read-out: Velvetleaf plant response rating): 30% | pest or weed control at 62 g/ha (velvetleaf; 62 g ai/ha, preemergence, scale 0 (no effect) to 100 (complete control), read-out: Velvetleaf plant response rating): 85% | pest or weed control at 125 g/ha (velvetleaf; 125 g ai/ha, preemergence, scale 0 (no effect) to 100 (complete control), read-out: Velvetleaf plant response rating): 100% | pest or weed control at 31 g/ha (velvetleaf; Preemergence, 31 g ai/ha, scale 0 to 100, 0 no effect, 100 complete control, read-out: Plant response rating, Velvetleaf): 35% | pest or weed control at 16 g/ha (Italian ryegrass; 16 g ai/ha, preemergence, scale 0 to 100 (0 no effect, 100 complete control), read-out: Ryegrass, Italian plant response rating): 0% | pest or weed control at 62 g/ha (Italian ryegrass; 62 g ai/ha, preemergence, scale 0 (no effect) to 100 (complete control), read-out: Ryegrass, Italian plant response rating): 15% | pest or weed control at 125 g/ha (Italian ryegrass; 125 g ai/ha, preemergence, scale 0 (no effect) to 100 (complete control), read-out: Ryegrass, Italian plant response rating): 70% | pest or weed control at 31 g/ha (Italian ryegrass; Preemergence, 31 g ai/ha, scale 0 to 100, 0 no effect, 100 complete control, read-out: Plant response rating, Ryegrass, Italian): 5% | pest or weed control at 16 g/ha (morningglory; 16 g ai/ha, preemergence, scale 0 to 100 (0 no effect, 100 complete control), read-out: Morningglory plant response rating): 5% | pest or weed control at 62 g/ha (morningglory; 62 g ai/ha, preemergence, scale 0 (no effect) to 100 (complete control), read-out: Morningglory plant response rating): 35% | pest or weed control at 125 g/ha (morningglory; 125 g ai/ha, preemergence, scale 0 (no effect) to 100 (complete control), read-out: Morningglory plant response rating): 40% | pest or weed control at 31 g/ha (morningglory; Preemergence, 31 g ai/ha, scale 0 to 100, 0 no effect, 100 complete control, read-out: Plant response rating, Morningglory): 20% | Ragweed plant response rating (ragweed [5]; 125 g ai/ha): 50 | Plant response rating, Ragweed (ragweed [5]; 500 g ai/ha): 60 | Plant response rating, Kochia (kochia [6]; 125 g ai/ha): 100 | Kochia plant response rating (kochia [6]; 500 g ai/ha): 100 | plant injury at 16 g/ha (soybean; 16 g ai/ha, preemergence, scale 0 to 100 (0 no effect, 100 complete control), read-out: Soybean plant response rating): 0% | plant injury at 62 g/ha (soybean; 62 g ai/ha, preemergence, scale 0 (no effect) to 100 (complete control), read-out: Soybean plant response rating): 20% | plant injury at 125 g/ha (soybean; 125 g ai/ha, preemergence, scale 0 (no effect) to 100 (complete control), read-out: Soybean plant response rating): 55% | plant injury at 31 g/ha (soybean; Preemergence, 31 g ai/ha, scale 0 to 100, 0 no effect, 100 complete control, read-out: Plant response rating, Soybean): 15% | plant injury at 16 g/ha (wheat, winter [7]; 16 g ai/ha, postemergence, 0 is no effect, 100 is complete control, read-out: Plant response rating (0 to 100), Wheat): 0% | plant injury at 125 g/ha (wheat, winter [7]; 125 g ai/ha, postemergence, visual rating, scale 0 to 100 (0 no effect, 100 complete control), read-out: Plant response rating, Wheat): 25% | plant injury at 62 g/ha (wheat, winter [7]; Postemergence, 62 g ai/ha, scale 0 to 100 (0 no effect, 100 complete control), read-out: Plant response rating, Wheat): 5% | Kochia plant response rating (kochia [8]; 125 g ai/ha): 90 | Plant response rating, Kochia (kochia [8]; 500 g ai/ha): 100
